# From PubChem BioAssay (NCI)
#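 Protocol summary: plate cells (96-well), add compound at 5 concentrations, incubate 48 h, interpolate endpoints linearly. GI50 = concentration required for 50% inhibition of growth. TGI denotes the concentration required for complete inhibition of growth.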
# Legend:
# Assay in all cases: NCI anticancer screen, dose series, 48 h
# CAKI-1 renal = tested on: CAKI-1 renal
# KM12 colon = tested on: KM12 colon
# M14 melanoma = tested on: M14 melanoma
# MALME-3M melanoma = tested on: MALME-3M melanoma
# RXF 393 renal = tested on: RXF 393 renal
# SK-MEL-28 melanoma = tested on: SK-MEL-28 melanoma
# SK-MEL-5 melanoma = tested on: SK-MEL-5 melanoma
# SNB-75 CNS = tested on: SNB-75 CNS
# SR leukemia = tested on: SR leukemia
# UO-31 renal = tested on: UO-31 renal
SMILES,TGI (CAKI-1 renal),TGI (KM12 colon),TGI (M14 melanoma),TGI (MALME-3M melanoma),TGI (RXF 393 renal),TGI (SK-MEL-28 melanoma),TGI (SK-MEL-5 melanoma),TGI (SNB-75 CNS),TGI (SR leukemia),TGI (UO-31 renal),GI50 (CAKI-1 renal),GI50 (KM12 colon),GI50 (M14 melanoma),GI50 (MALME-3M melanoma),GI50 (RXF 393 renal),GI50 (SK-MEL-28 melanoma),GI50 (SK-MEL-5 melanoma),GI50 (SNB-75 CNS),GI50 (SR leukemia),GI50 (UO-31 renal)
CN=C(NC(=S)N(C)C)N(C)C,> 100 µM,> 100 µM,> 100 µM,> 100 µM,> 100 µM,> 100 µM,> 100 µM,> 100 µM,> 100 µM,> 100 µM,–,–,–,–,–,–,–,–,–,–
O=S(=O)(O)c1ccc(N=Nc2nc(C(F)(F)F)c(C(F)(F)F)[nH]2)cc1,89.4 µM,> 100 µM,46.6 µM,> 100 µM,32.9 µM,36.2 µM,> 100 µM,> 100 µM,69.9 µM,> 100 µM,–,–,–,–,–,–,–,–,–,–
Cc1cc(Nc2nc(-c3cccnc3)nc3ccccc23)n[nH]1,–,99.1 µM,> 100 µM,> 100 µM,2.52 µM,> 100 µM,> 63.6 µM,2.18 µM,> 38.5 µM,> 100 µM,0.325 µM,0.206 µM,2.33 µM,> 100 µM,0.388 µM,10.1 µM,4 µM,0.3 µM,0.481 µM,0.443 µM
COc1ccc(/C=c2\sc3n(c2=O)C2C(NN=3)N(C)C(=O)N2C)cc1 (configuration not stated),> 100 µM,> 100 µM,5.17 µM,> 100 µM,2.75 µM,> 100 µM,> 100 µM,6.77 µM,> 100 µM,> 100 µM,0.563 µM,0.588 µM,0.344 µM,1.19 µM,0.603 µM,2.27 µM,0.66 µM,1.17 µM,0.316 µM,1.86 µM
CN(COC(=O)c1ccccc1)c1nc(N(C)COC(=O)c2ccccc2)nc(N(C)COC(=O)c2ccccc2)n1,> 86.2 µM,> 100 µM,> 100 µM,> 100 µM,26.2 µM,> 100 µM,> 100 µM,> 100 µM,> 100 µM,> 100 µM,–,–,–,–,–,–,–,–,–,–
Nc1c(O)cc(N=C2C(=O)C=CC=C2C(=O)O)c(O)c1C(=O)O,> 100 µM,> 100 µM,> 59.2 µM,> 57.4 µM,> 31.6 µM,> 41.3 µM,> 100 µM,> 100 µM,> 100 µM,> 100 µM,–,–,–,–,–,–,–,–,–,–
O=[N+]([O-])c1ccc(Oc2nc(Nc3ccc(O[C@H]4CO[C@H]5[C@@H]4OC[C@@H]5O)c(Cl)c3)ncc2F)c(Cl)c1,8.11 µM,2.22 µM,1.93 µM,3.17 µM,2.91 µM,4.78 µM,2.59 µM,3.28 µM,7.79 µM,4.81 µM,2.28 µM,0.41 µM,0.565 µM,1.07 µM,0.787 µM,1.55 µM,1.29 µM,0.443 µM,0.548 µM,1.6 µM
COC(=O)C1C=CCON2CCc3c(n(C)c4ccccc34)C12 (configuration not stated),> 100 µM,> 100 µM,> 100 µM,> 100 µM,> 100 µM,> 100 µM,> 100 µM,> 100 µM,> 100 µM,> 100 µM,–,–,–,–,–,–,–,–,–,–
Oc1ccc(-c2nc3ccc4[nH]ncc4c3c3c2CCCC3)c(F)c1,9.73 µM,13.2 µM,12 µM,12.1 µM,5.63 µM,12.4 µM,9.26 µM,7.05 µM,7.46 µM,8.35 µM,2.69 µM,0.362 µM,1.07 µM,3.36 µM,1.47 µM,2.74 µM,2.55 µM,2.02 µM,0.464 µM,2.6 µM
CCN1C(=O)CCCc2c1ccc(Nc1ncc(Cl)c(NC3[C@@H](C(N)=O)[C@@H]4C=C[C@H]3C4)n1)c2OC (some centres not stated),4.48 µM,13.9 µM,2.32 µM,3.4 µM,3.38 µM,6.96 µM,4.82 µM,6.23 µM,19.7 µM,4.07 µM,0.919 µM,1.87 µM,0.77 µM,0.998 µM,1.22 µM,1.56 µM,1.45 µM,0.619 µM,0.0556 µM,0.809 µM
N#Cc1c(Br)n(C2OC(CO)C(O)C2O)c2ncnc(N)c12 (configuration not stated),2.91 µM,> 40.1 µM,17.8 µM,20 µM,6.8 µM,12.7 µM,7 µM,30.7 µM,4.98 µM,59.5 µM,0.677 µM,1.71 µM,2.18 µM,2.53 µM,0.847 µM,2.14 µM,2.68 µM,3.98 µM,0.827 µM,2.25 µM
CCCCC(C)C(OC(=O)CC(CC(=O)O)C(=O)O)C(CC(C)CC(O)CCCCC(O)CC(O)C(C)N)OC(=O)CC(CC(=O)O)C(=O)O (configuration not stated),> 100 µM,> 100 µM,> 100 µM,> 100 µM,> 100 µM,> 100 µM,> 100 µM,> 100 µM,> 100 µM,> 100 µM,–,–,–,–,–,–,–,–,–,–
S=c1nc(COc2ccc(Cl)cc2Cl)[nH][nH]1,> 100 µM,–,> 100 µM,> 100 µM,> 100 µM,> 100 µM,> 100 µM,> 100 µM,> 100 µM,> 100 µM,–,–,–,–,–,–,–,–,–,–
O=C(O)C1CC2(C1)CC(C(=O)O)C2 (configuration not stated),> 100 µM,> 100 µM,> 100 µM,> 100 µM,> 100 µM,> 100 µM,> 100 µM,> 100 µM,> 100 µM,> 100 µM,–,–,–,–,–,–,–,–,–,–
CC(C)(C)c1ccc(OC(=O)Nc2ccc(O)c(C(=O)O)c2)cc1,> 100 µM,> 100 µM,> 100 µM,> 100 µM,> 100 µM,> 100 µM,> 100 µM,> 100 µM,> 100 µM,–,–,–,–,–,–,–,–,–,–,–
COc1cccc(-c2ccc3c(c2)C2CCN(Cc4ccccc4)C3C2)c1 (configuration not stated),40.1 µM,21.6 µM,24.8 µM,30.4 µM,24.6 µM,65.9 µM,14.7 µM,27.2 µM,13.8 µM,21.6 µM,10.8 µM,5.14 µM,5.78 µM,13.4 µM,10.1 µM,13.4 µM,3.51 µM,6.69 µM,3.95 µM,6.79 µM
COc1cccc(-c2nn(-c3ccccc3)cc2-c2ccnc(NCCNC(=O)Nc3cccc(C(F)(F)F)c3)c2)c1,5.62 µM,4.54 µM,10.6 µM,3.9 µM,3.03 µM,3.77 µM,3.15 µM,12.5 µM,4.97 µM,4.15 µM,1.95 µM,2.08 µM,2.79 µM,1.76 µM,1.53 µM,1.83 µM,1.73 µM,1.62 µM,1.91 µM,1.6 µM
N#CC1CCCCOCCOCCOCCOCCOCCCCCC1=O (configuration not stated),> 100 µM,> 100 µM,> 100 µM,> 100 µM,> 100 µM,> 100 µM,> 100 µM,> 100 µM,> 100 µM,> 100 µM,–,–,–,–,–,–,–,–,–,–
CN(Cc1cccc(F)c1)c1ccc(CO)c(Cl)c1,> 61.3 µM,79.6 µM,83 µM,> 88.9 µM,41.7 µM,> 100 µM,23.3 µM,51.6 µM,> 88.6 µM,75.5 µM,3.05 µM,20.5 µM,20.4 µM,27.5 µM,8.72 µM,20.7 µM,11 µM,14.4 µM,24.4 µM,10.3 µM
O=C1C2=C(c3ccccc31)C(c1ccccc1)N1C(=O)CSC1=N2 (configuration not stated),> 100 µM,> 100 µM,> 96.6 µM,> 100 µM,60.5 µM,> 100 µM,> 100 µM,67.7 µM,> 100 µM,> 100 µM,–,–,–,–,–,–,–,–,–,–
NC1=NC(c2ccc(Cl)cc2)N(c2ccc(S(N)(=O)=O)cc2)C(N)=N1 (configuration not stated),> 100 µM,> 100 µM,> 100 µM,> 100 µM,> 100 µM,> 100 µM,> 100 µM,> 100 µM,> 100 µM,> 100 µM,–,–,–,–,–,–,–,–,–,–
CC(=O)OC1=CC2=CC[C@H]3[C@@H]4CCC(=O)[C@@]4(C)CC(=O)[C@]3(S)[C@@]2(C)CC1,> 100 µM,> 100 µM,> 100 µM,57.2 µM,39.7 µM,> 100 µM,> 100 µM,> 100 µM,74.1 µM,> 100 µM,–,–,–,–,–,–,–,–,–,–
O=[N+]([O-])c1ccc(C2CC(c3ccccc3Cl)=Nc3ccccc3S2=O)cc1 (configuration not stated),4.33 µM,9.97 µM,20.7 µM,32 µM,4.05 µM,13.8 µM,14.2 µM,21.4 µM,6.64 µM,4.74 µM,–,–,–,–,–,–,–,–,–,–
COC1=C(C)C(=O)c2c(c(CCCl)c3n2CCC3O)C1=O (configuration not stated),3.95 µM,6.73 µM,1.21 µM,0.584 µM,0.597 µM,3.85 µM,0.291 µM,0.628 µM,> 26.8 µM,2.42 µM,1.22 µM,1.37 µM,0.264 µM,0.23 µM,0.226 µM,0.811 µM,0.148 µM,0.191 µM,0.409 µM,0.545 µM
